Experimental data reported in patent US7807185B2, “Methods of inhibiting growth of bacteria, yeast, fungus, and virus with Pseudomonas lindbergii and Bacillus coagulans extracellular products” (Ganeden Biotech, Incorporated, priority 1997, dated 2010).

Experiments:
Assay type in all cases: cell-based
Details in all cases: 18 hr at 30° C.
[1] = test system: various species of the fungus Trichophyton; experiment: in vitro zone of inhibition assay on potato-dextrose plates, Trichophyton
Experimental: In the assay, potato-dextrose plates (DIFCO®, Detroit, Mich.) were prepared using standard procedures and were inoculated individually with a confluent bed (about 1.7×10^6) of various species of the fungus Trichophyton. The tested fungal strains of Trichophyton species (available from the American Type Culture Collection (ATCC; 10801 University Boulevard, Manassas, Va. 20110-2209)) and their ATCC accession numbers, as well as the results of in vitro inhibition by Bacillus coagulans are illustrated in FIG. 3.
Inhibition by Bacillus coagulans was ascertained by placing on the plate approximately 1.5×10^6 colony forming units (CFU) in 10 μl of broth or buffer, plated directly in the center of the potato-dextrose plate, with one test locus per plate. The size of each test locus was approximately 8 mm in diameter and a minimum of three tests were performed for each inhibition assay. The negative control consisted of a […] volume of sterile saline solution, whereas the positive control consisted of a […] volume 2% Miconazole (1-[2-(2,4-dichlorophenyl)-2-[(2,4-dichlorophenyl)methoxy]methyl-[…] within an inert cream.
The plates were then incubated for approximately 18 hr at 30° C., at which time the zones of inhibition were measured. […]

four species of Candida = experiment: in vitro zone of inhibition assay on potato-dextrose plates, Candida
Experimental: Each of the yeast pathogens and their ATCC accession numbers are illustrated in FIG. 4.
In the in vitro inhibition assay, potato-dextrose plates (DIFCO®, Detroit, Mich.) were prepared using standard procedures and were inoculated individually with a confluent bed about 1.7×10^6 of the four species of Candida. Inhibition by Bacillus coagulans was tested by placing on the plate about 1.5×10^6 colony forming units (CFU) in 10 μl of broth or buffer, plated directly in the center of the potato-dextrose plate with one test locus of about 8 mm in diameter per plate. A minimum of three tests were performed for each inhibition assay. The negative control consisted of a 10 μl volume of a sterile saline solution, whereas the positive control consisted of a 1 μl volume of Miconazole cream.
The plates were then incubated for approximately 18 hr at 30° C., at which time the zones of inhibition were measured. As designated herein, “excellent inhibition” means the zone was 10 mm or greater in diameter; and “good inhibition” means the zone was greater than 2 mm in diameter, but less than 10 mm in diameter.

[2] = test system: various opportunistic bacterial pathogens; experiment: in vitro bacterial pathogen screen, zone of inhibition (DIFCO BACTROL Disk Set)
Source text: The ability of Bacillus coagulans to inhibit various opportunistic bacterial pathogens was quantitatively ascertained by use of an in vitro assay. This assay is part of a standardized bacterial pathogen screen (developed by the U.S. Food and Drug Administration (FDA)) and is commercially available on solid support disks (DIFCO® BACTROL® Disk Set). To perform the assay, potato-dextrose plates (DIFCO®) were initially prepared using standard procedures. The plates were then individually inoculated with each of the bacteria (approximately 1.5×10^6 CFU) to be tested, so as to form a confluent bacterial bed.
Inhibition by Bacillus coagulans was subsequently ascertained by placing approximately 1.5×10^6 CFU of Bacillus coagulans in 10 μl of broth or buffer, directly in the center of the potato-dextrose plate, with one test locus being approximately 8 mm in diameter per plate. A minimum of three test loci were used for each assay. The negative control consisted of a 10 μl volume of a sterile saline solution, whereas the positive control consisted of a 10 μl volume of glutaraldehyde. The plates were then incubated for approximately about 18 hr at 30° C., at which time the zones of inhibition were measured. […]

Row | Compound | zone of inhibition diameter ([1]; 10 ml volume 2% Miconazole in inert cream, mean average of three tests) | inhibition grade (zone of inhibition) [1] | zone of inhibition diameter (four species of Candida; 1 μl volume of Miconazole cream, average of three tests) | inhibition grade (zone of inhibition) (four species of Candida) | zone of inhibition diameter ([2]; 10 μl volume of glutaraldehyde, average of three tests) | inhibition grade (zone of inhibition) [2]
1 | Clc1ccc(COC(Cn2ccnc2)c2ccc(Cl)cc2Cl)c(Cl)c1 (stereo not drawn) [positive control] | approximately 8.5 mm | good inhibition (the zone was greater than 2 mm in diameter, but less than 10 mm in diameter) | approximately 8.7 mm | good inhibition (the zone was greater than 2 mm in diameter, but less than 10 mm in diameter) |  | 
2 | O=CCCCC=O [glutaraldehyde] |  |  |  |  | approximately 16.2 mm | excellent
